Reference: patent US20230020507A1, “COMPOUND AND USE THEREOF IN TREATING AUTOIMMUNE DISEASES” (PARENCHYMA BIOTECH INC., priority 2019, published 2023)

Tests used:
[1] = tested on: C57BL/6 mice with DSS-induced inflammatory bowel disease; assay: Mucosal healing (intestinal epithelial barrier integrity) with FITC-dextran in DSS mice; format: in vivo, mouse; parameters: dose or concentration left out as unconfirmed; conditions: oral daily 2nd to 9th day, 10th day, 4 hours after FITC-dextran, compared to solvent control
From the text: The 1.5% DSS solution was changed at an interval of 2 days. Sterile distilled water was provided for drinking from the 8th day of the experiment.

[2] = tested on: Foxp3+ regulatory T cells; assay: In vitro regulatory T cell (Foxp3+ Treg) production from human peripheral blood CD4 T cells; format: cell-based; conditions: anti-CD3/anti-CD28, TGFβ-1, IL-2, 2.5 μM, 7 days
Experimental: Human peripheral blood (AllCells) and phosphate buffered saline (PBS) were mixed in a ratio of 1:1 to prepare a mixture, followed by allowing the mixture to slowly rise so as not to be mixed into the upper layer of Histopaque (Sigma). After centrifugation at 350 g for 20 minutes, only the monocyte layer in the middle layer was collected and washed with HBSS (Hanks' Balanced Salt Solution, Gibco®). After washing with MACS buffer (Miltenyi Biotec) once more to obtain T-cells, positive selection (autoMACS seperator, Miltenyi Biotec) was performed with CD4 Microbeads (Miltenyi Biotec). The T-cells collected by the above method were prepared by resuspending the cells in RPMI-fetal bovine serum (FBS) 10%+2-ME (mercaptoethanol) medium at 5×10^5/ml. For T-cell activation, 10 μg/ml anti-CD3 (eBioscience™) was dispensed by 150 μl into a 48-well plate, reacted in a cell incubator (37° C., 5% CO2 incubator) for 3 hours, and washed with phosphate buffered saline to prepare the plate. 250 μl of resuspended T-cells was dispensed onto the prepared plate, and each well was treated with 2 μg/ml of anti-CD28 (eBioscience™), 5 ng/ml of TGFβ-1 (R&D systems), and 50 U/ml of IL-2 (Miltenyi Biotec). Each 5 μl of compounds at a concentration of 2.5 μM diluted in RPMI+2ME medium was used for treatment, followed by culturing the same in a cell incubator (37° C., 5% CO2 incubator) for 7 days. As a control, 5 μl of 0.05% dimethylsulfoxide (DMSO)/RPMI medium was used for treatment. After 7 days, in order to confirm effects of producing regulatory T cells, the cultured cells were recovered to determine the presence of Foxp3 protein.
The recovered cells were placed in a 5 ml FACS tube (BD Falcon) and washed with 1 ml of phosphate buffered saline. The cells were resuspended in 0.1 ml of FACS buffer (0.1% NaN3, 1% FBS) and treated with 1 μg of human immunoglobulin G (Human IgG, Sigma) to prevent non-specific binding of the antibody. After reacting at 4° C. for 15 minutes, the cells were washed with FACS buffer. Then, 1 ml of Fixation/Permeabilization solution (eBioscience™) was added to the FACS tube containing each sample, followed by reaction at 4° C. for 1 hour. Thereafter, the product was washed twice with a Permeabilization buffer (eBioscience™). Then, 0.25 μg of Foxp3 monoclonal antibody (eBioscience™) was used for treatment, followed by staining the sample for 4 to 30 minutes. The cells were washed twice with the permeabilization buffer, suspended in 0.3 ml of FACS buffer, and measured by flow cytometry.

Structure (SMILES): O=C(Cc1c[nH]c2ccc(Cl)cc12)Nc1ccc(Cl)c(F)n1 [Compound 26, 2-(5-chloro-1H-indol-3-yl)-N-(5-chloro-6-fluoropyridin-2-yl)acetamide]
- Serum FITC-dextran [1]: significantly reduced
- generation of Foxp3+ regulatory T cells [2]: promoted
